Measured values taken from article PMC4414724 (Chemico-biological interactions, 2015).
Read-outs that look alike come from different tables or passages of the source.

Tests used:
rat liver ADH1 = conditions: cited from earlier work
[1] = test system: microsomal ethanol oxidizing system (NADPH-dependent cytochrome P-450 enzymes); conditions: cited from earlier work
ADH3 = ADH3 (UniProt P12711); conditions: cited from earlier work
[2] = humans; cited from earlier work
[3] = cited from earlier work
[4] = molecular target: rat liver alcohol dehydrogenase (Rattus norvegicus, UniProt P06757); experiment: Oxidation of alcohols by isolated rat liver alcohol dehydrogenase
rat liver alcohol dehydrogenase, sequence (P06757 2-376 limits assumed): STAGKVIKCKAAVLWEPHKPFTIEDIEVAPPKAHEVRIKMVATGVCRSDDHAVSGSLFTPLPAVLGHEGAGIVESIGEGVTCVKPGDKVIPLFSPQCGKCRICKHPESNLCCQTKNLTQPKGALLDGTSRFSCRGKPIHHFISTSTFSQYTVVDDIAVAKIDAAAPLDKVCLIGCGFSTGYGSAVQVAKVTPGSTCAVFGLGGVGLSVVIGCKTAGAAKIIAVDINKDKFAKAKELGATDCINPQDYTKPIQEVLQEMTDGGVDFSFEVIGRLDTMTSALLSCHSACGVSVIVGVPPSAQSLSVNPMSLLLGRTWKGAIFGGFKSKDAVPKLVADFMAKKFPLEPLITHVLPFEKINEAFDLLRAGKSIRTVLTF

[5] = uninhibited rate at higher 4-methylpyrazole and isobutyramide
[6] = 83 mM potassium phosphate, 40 mM KCl, pH 7.3, 37 °C, 0.5 mM NAD+

Row | Structure (SMILES) | Rate (zero-order elimination) (fed rat, MP+AT, methanol 10 mmole/kg i.p.) [mmol/kg/h] | time required to eliminate the dose (rat, in vivo) [h] | Rate (zero-order elimination) (rat, in vivo, ip) [mmol/kg/h] | Vmax relative to ethanol (rat liver ADH1) | Km [1] [mM] | %ADH (estimated percentage of elimination due to ADH) (from inhibition by 1 mmole/kg 4-methylpyrazole) [%] | in vivo rate of elimination (rat, in vivo) [mmol/kg/h] | activity of ADH3 (ADH3) | possible contribution to the rate of ethanol metabolism [1] | rate of elimination [2] | rate of elimination ([3]; fed rats) | Km of inhibitor-insensitive elimination [3, 5] [mmol/kg] | Vmax of inhibitor-insensitive elimination [3, 5] [mmol/kg/h] | Km [4, 6] [mM] | V rel (Vmax relative to ethanol as substrate) [4, 6] | in vitro v rel ([4]; calculated from kinetic constants with Michaelis-Menten equation for 5 mM alcohol) | Vrel/K ([4]; pH 7.3, 37 °C, 0.5 mM NAD+)
1 | CO [Methanol] | 0.41 | 15 | 0.56 ± 0.01 | 0.10 | 22 | – | – | – | – | – | – | – | – | – | – | – | –
2 | CCO [Ethanol, ethanol] | – | – | – | – | 9.6 | 89 | 7.9 ± 1.0 | no detectable activity | 20–25% | about 2.2 mmol/kg•h | about 8 mmol/kg•h | 21 | 2.1 | 0.64 ± 0.22 | (1.0) | 0.88 | 1.6
